Like-named read-outs stand apart in the source and are kept apart here.
Legend:
[1] = Phase 1 clinical study in healthy subjects: plasma pharmacokinetics and food effect; assay type: in vivo, human
Protocol: A randomized, double‐blind, third‐party open (i.e., subject and Investigator blind, and Sponsor open), placebo‐controlled study was conducted in healthy subjects to investigate the safety, tolerability, and pharmacokinetics of single and multiple oral doses of PF‐04895162 and to characterize the effect of food on the pharmacokinetics of a single oral dose of PF‐04895162. The study was conducted in accordance with the International Conference on Harmonization guideline for Good Clinical Practice and the principles of the Declaration of Helsinki and was approved by the local independent ethics committee. All subjects gave written informed consent prior to participation in the study. The study was planned as a parallel group, dose escalation study in four cohorts of 10 subjects each, however, the study was terminated prematurely and only Cohort 1 was conducted. After an initial screening visit to confirm eligibility, subjects in Cohort 1 (Figure 1) received single oral doses of 300 mg PF‐04895162 in Period 1 (under fasting conditions) and Period 2 (under fed conditions), and then 300 mg BID PF‐04895162 or placebo for 14 days (under fasting conditions) in Period 3 (the final dose was administered on the morning of Day 14). In Period 2, subjects were given a high‐fat breakfast 25 minutes prior to dosing which had to be consumed within 20 minutes. In all periods, subjects were fasted for at least 8 hours prior to morning dosing (except for breakfast in Period 2), and received lunch and dinner approximately 4 and 9‐10 hours after the morning dose, respectively. In Period 3, subjects were randomized so that eight subjects received PF‐04895162 and two subjects received placebo. The single doses in Periods 1 and 2, and the first dose in Period 3 were each separated by 3 days. A follow‐up visit was conducted 7‐14 days after the final dose. The ClinicalTrials.gov identifier was NCT01691274.
Safety was assessed throughout the study by monitoring adverse events, vital signs (blood pressure, pulse rate, and body temperature), 12‐lead ECGs, and physical examinations. Blood samples for safety laboratory assessments were collected prior to and 24 hours after the first single dose of PF‐04895162 (Day 1 and 2 of Period 1), and in Period 3 on Days 7, 14, and 21 (additional samples were also collected in response to emerging safety data). The Columbia suicide severity rating scale (C‐SSRS) was also conducted at screening or baseline and at the follow‐up visit. Blood samples for pharmacokinetic profiles of PF‐04895162 were collected from predose to 72 hours after each single dose (Periods 1 and 2), and up to 12 and 48 hours after morning dosing on Days 7 and 14, respectively, in Period 3. Additional trough samples were also collected on Days 5, 6, 12, and 13 of Period 3.
The sample size of 10 subjects per cohort was chosen based on practical considerations and was considered sufficient to provide adequate safety information at each dose level. To assess the effect of food on the pharmacokinetics of PF‐04895162, natural log transformed area under the plasma concentration‐time curve (AUC) from time 0 to the last measured time point (AUClast), AUC from time 0 extrapolated to infinity (AUCinf) and maximum plasma concentration (Cmax) were analyzed using a mixed effects model with treatment (fed or fasted) as a fixed effect and subject as a random effect. Estimates of the adjusted mean differences (Fed ‐ Fasted) and corresponding 90% confidence intervals (CIs) were obtained from the model. The adjusted mean differences and 90% CIs for the differences were exponentiated to provide estimates of the ratio of adjusted geometric means (Fed/Fasted) and 90% CIs for the ratios. No formal hypothesis testing was conducted.

human hepatocytes [2] = assay: mitochondrial respiratory reserve in human hepatocytes; assay type: cell-based; details: human hepatocytes treated for 25 minutes (data not shown)
MRP3 = target: T1, MRP3 (Homo sapiens, UniProt O15438); assay: MRP3 transporter inhibition in vesicles from HEK293 cells; assay type: biochemical
T1 construct: host or cells: membrane vesicles from HEK293 cells
Text: […]

healthy subjects = details: cited from earlier work; for subjects with mild/moderate transaminase elevations: ref Pfizer data on file
[3] = 7-Day Oral Toxicity Study in Monkeys; assay type: in vivo, cynomolgus monkey; details: both sexes, cynomolgus monkey, plasma, oral, Day 7, males and females, read-out: total Cmax
Protocol: (§1) Male and female cynomolgus monkeys were administered PF-04895162 twice daily for 7 days at approximately 12 hours apart, with the dose split equally between the 2 daily doses. The highest administered does was 200 mg/kg/day.

cynomolgus monkeys = assay: 7-Day Oral Toxicity Study in Monkeys; assay type: in vivo, cynomolgus monkey; details: for liver weight: males and females
Protocol: as §1

[4] = THLE 72 hour cytotoxicity assay based on ATP depletion; assay type: cell-based; details: human, THLE cells, after 72 hours
Text: […]

human hepatocytes [5] = assay: human hepatocyte imaging assay (cell loss); assay type: cell-based; details: 48 hours; three assessments in two human hepatocyte lots (LBN and HU4165)
Text: […]

[6] = 300 mg single dose, high-fat breakfast vs fasted

T1 sequence (O15438 whole entry): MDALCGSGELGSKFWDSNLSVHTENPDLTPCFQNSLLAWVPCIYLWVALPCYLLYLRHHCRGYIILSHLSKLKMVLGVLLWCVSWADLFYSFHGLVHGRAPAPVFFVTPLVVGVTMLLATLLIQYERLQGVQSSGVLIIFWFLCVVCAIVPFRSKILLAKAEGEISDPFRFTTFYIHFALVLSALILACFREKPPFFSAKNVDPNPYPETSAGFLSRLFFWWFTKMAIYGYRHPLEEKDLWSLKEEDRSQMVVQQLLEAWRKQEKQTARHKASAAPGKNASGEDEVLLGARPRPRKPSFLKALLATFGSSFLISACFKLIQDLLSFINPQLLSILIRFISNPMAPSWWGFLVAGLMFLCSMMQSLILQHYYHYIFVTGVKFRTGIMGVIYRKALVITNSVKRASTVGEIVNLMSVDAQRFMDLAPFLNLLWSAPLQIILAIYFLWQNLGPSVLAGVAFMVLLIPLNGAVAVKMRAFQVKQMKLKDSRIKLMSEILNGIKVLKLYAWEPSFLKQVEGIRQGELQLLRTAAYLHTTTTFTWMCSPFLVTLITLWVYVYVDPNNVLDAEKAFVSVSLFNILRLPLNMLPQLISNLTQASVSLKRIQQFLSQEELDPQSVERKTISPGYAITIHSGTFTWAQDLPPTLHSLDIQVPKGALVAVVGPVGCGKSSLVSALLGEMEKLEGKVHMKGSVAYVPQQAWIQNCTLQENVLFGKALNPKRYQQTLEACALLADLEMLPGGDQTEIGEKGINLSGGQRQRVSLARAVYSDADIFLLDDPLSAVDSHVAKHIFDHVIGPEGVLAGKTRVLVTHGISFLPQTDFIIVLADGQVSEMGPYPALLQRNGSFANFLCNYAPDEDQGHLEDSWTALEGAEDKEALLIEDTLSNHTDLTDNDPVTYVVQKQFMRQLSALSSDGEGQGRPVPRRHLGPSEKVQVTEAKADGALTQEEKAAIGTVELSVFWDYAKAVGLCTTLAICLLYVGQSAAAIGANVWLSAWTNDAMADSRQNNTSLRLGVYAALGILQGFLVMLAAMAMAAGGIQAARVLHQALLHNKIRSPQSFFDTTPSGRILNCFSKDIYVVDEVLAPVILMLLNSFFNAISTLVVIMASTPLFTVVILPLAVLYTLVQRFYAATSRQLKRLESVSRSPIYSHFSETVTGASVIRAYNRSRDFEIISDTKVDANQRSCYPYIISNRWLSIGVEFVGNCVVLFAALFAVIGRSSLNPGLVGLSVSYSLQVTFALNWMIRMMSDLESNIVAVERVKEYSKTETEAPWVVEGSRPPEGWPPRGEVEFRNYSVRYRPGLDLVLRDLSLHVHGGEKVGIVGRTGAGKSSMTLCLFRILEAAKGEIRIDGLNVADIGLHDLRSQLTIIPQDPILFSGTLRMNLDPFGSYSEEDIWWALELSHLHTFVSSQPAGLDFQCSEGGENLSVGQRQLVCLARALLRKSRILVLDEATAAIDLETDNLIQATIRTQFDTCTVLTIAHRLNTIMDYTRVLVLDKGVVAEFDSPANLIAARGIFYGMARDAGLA

## O=C(Cc1ccc(F)cc1)Nn1c(C2CC2)nc2cc(F)ccc2c1=O [PF‐04895162, N‐(2‐cyclopropyl‐7‐fluoro‐4‐oxoquinazolin‐3(4H)‐yl)‐2‐(4‐fluorophenyl)ethanamide]
[1]; [6]
  AUCinf, Ratio (90% Confidence Interval) of Adjusted Means, Fed vs Fasted: 113.27 (102.99, 124.58) %
  AUClast, Ratio (90% Confidence Interval) of Adjusted Means, Fed vs Fasted: 116.85 (106.90, 127.73) %
  Cmax, Ratio (90% Confidence Interval) of Adjusted Means, Fed vs Fasted: 202.92 (178.28, 230.95) %
[1]; human, plasma, oral, 300 mg, 300 mg BID, Day 7, subject with the highest ALT values, read-out: AUCtau, Subject 8
  AUC: 93000 ng·h/mL
[1]; human, plasma, oral, 300 mg, 300 mg BID, Day 7, subject with the highest ALT values, read-out: Cmax, Subject 8 (converted)
  Cmax: 10800 ng/mL
[1]; human, plasma, oral, 300 mg, Period 1, 300 mg fasted, Day 1 (N = 10), 12 h interval, geometric mean (%CV), read-out: AUCtau
  AUC: 40800 ng·h/mL
[1]; human, plasma, oral, 300 mg, Period 1, 300 mg fasted, Day 1 (N = 10), arithmetic mean ± SD, read-out: t½, terminal half-life (converted)
  half-life: 7.88 ± 3.2 h
[1]; human, plasma, oral, 300 mg, Period 1, 300 mg fasted, Day 1 (N = 10), geometric mean (%CV), read-out: Cmax
  Cmax: 4510 ng/mL
[1]; human, plasma, oral, 300 mg, Period 1, 300 mg fasted, Day 1 (N = 10), median (range)
  Tmax: 5 h
[1]; human, plasma, oral, 300 mg, Period 1, 300 mg fasted, Day 1 (N = 10), total concentration, read-out: Cmax
  Cmax: 12.7 µM
[1]; human, plasma, oral, 300 mg, Period 2, 300 mg fed, Day 1 (N = 10), arithmetic mean ± SD, read-out: t½, terminal half-life (converted)
  half-life: 5.21 ± 1.17 h
[1]; human, plasma, oral, 300 mg, Period 2, 300 mg fed, Day 1 (N = 10), geometric mean (%CV), read-out: Cmax
  Cmax: 9150 ng/mL
[1]; human, plasma, oral, 300 mg, Period 2, 300 mg fed, Day 1 (N = 10), median (range)
  Tmax: 4 h
[1]; human, plasma, oral, 300 mg, Period 2, 300 mg fed, Day 1 (N = 10), total concentration, read-out: Cmax
  Cmax: 25.8 µM
[1]; human, plasma, oral, 300 mg, Period 3, 300 mg BID fasted, Day 7 (N = 7), geometric mean (%CV)
  Cmax at 7 day: 9430 ng/mL
[1]; human, plasma, oral, 300 mg, Period 3, 300 mg BID fasted, Day 7 (N = 7), geometric mean (%CV), read-out: AUCtau
  AUC: 85200 ng·h/mL
[1]; human, plasma, oral, 300 mg, Period 3, 300 mg BID fasted, Day 7 (N = 7), median (range)
  Tmax at 7 day: 2 h
[1]; human, plasma, oral, 300 mg, Period 3, 300 mg BID fasted, Day 7 (N = 7), total concentration
  Cmax at 7 day: 26.5 µM
[1]; human, plasma, oral, 300 mg, Period 3, 300 mg BID fasted, Day 14 (N = 7), arithmetic mean ± SD, read-out: t½, terminal half-life (converted)
  half-life at 14 day: 8.04 ± 3.29 h
[1]; human, plasma, oral, 300 mg, Period 3, 300 mg BID fasted, Day 14 (N = 7), geometric mean (%CV)
  Cmax at 14 day: 8380 ng/mL
[1]; human, plasma, oral, 300 mg, Period 3, 300 mg BID fasted, Day 14 (N = 7), geometric mean (%CV), read-out: AUCtau
  AUC: 71200 ng·h/mL
[1]; human, plasma, oral, 300 mg, Period 3, 300 mg BID fasted, Day 14 (N = 7), median (range)
  Tmax at 14 day: 2 h
[1]; human, plasma, oral, 300 mg, Period 3, 300 mg BID fasted, Day 14 (N = 7), total concentration
  Cmax at 14 day: 23.6 µM
[1]; human, plasma, oral, 300 mg, similar after single and multiple dosing, 300 mg, read-out: Mean terminal half-life (converted)
  half-life: ~8 h
Human hepatocytes [2]
  Concentrations at which mitochondrial respiratory reserve was compromised: > 11 µmol/L
MRP3
  effect on MRP3: no inhibitory effect
Healthy subjects; 250 mg BID for 7 days
  subjects with mild/moderate transaminase elevations: one of 12 subjects
Healthy subjects; 300 mg BID for 7 days
  subjects with mild/moderate transaminase elevations: one of 12 subjects
Healthy subjects; multiple doses up to 200 mg BID for 7 days
  liver injury in healthy subjects: No evidence of liver injury
Healthy subjects; single dose studies up to 600 mg
  liver injury in healthy subjects: No evidence of liver injury
[3]; 150 mg/kg/day
  Cmax: > 27000 ng/mL
[3]; 200 mg/kg/day
  Cmax: > 24000 ng/mL
Cynomolgus monkeys; 150 and/or 200 mg/kg/day
  Treatment-related clinical findings: decreased activity, ataxia, inappetence, stereotypy (hyper-reactivity, rigidity, jumping), tremors, loss of limb function, rapid eye movement, and eyelid partially/completely closed
Cynomolgus monkeys; females, 150 and 200 mg/kg/day
  thymus gland weight: Decreased thymus gland weight
Cynomolgus monkeys; 150 and 200 mg/kg/day
  liver weight: Increased liver weight
Cynomolgus monkeys; 150 and 200 mg/kg/day, listed as ICA-105665
  liver weight: increased liver weight
Cynomolgus monkeys; males, 150 and 200 mg/kg/day
  brain weight: dose-dependent increases in brain weight
Cynomolgus monkeys; twice daily for 7 days, up to 200 mg/kg/day
  clinical chemistry (liver effects): no clinical chemistry changes suggestive of liver effects
[4]
  IC50 at 72 h: ~192 µM
Human hepatocytes [5]
  AC50: > 125 µM
